Laboratory results published in PMC12592173, “Targeted degradation of EGFR 19Del by PROTACs suppresses tumor growth in non-small-cell lung cancer” (Frontiers in Pharmacology, 2025).
Values joined by “and” are separate entries in the source; they are usually repeats but may differ in a detail not shown here. Equal values may be shown once. “Also recorded” adds a separate entry of the source. Read-outs that look alike come from different tables or passages of the source.

Key:
HCC827 cells [1] = settings: ref Zhao et al., 2022; cited from earlier work
EGFR^Del19 [2] = settings: HCC827 cells; ref Zhao et al., 2022; cited from earlier work
pEGFR and pAKT = assay: Western blot of downstream signaling in HCC827 cells; type: cell-based, human
Procedure: (§1) Cells at 70%–90% confluence were lysed in RIPA buffer with complete protease inhibitor cocktail (Roche Applied Science, Penzberg, Germany). Lysates were quantified, separated on SDS-PAGE gels, and transferred onto PVDF membranes, followed by the blockade with 5% milk in TBS+ 0.1% Tween-20 buffer for 1 h at room temperature. The following primary antibodies were used: anti-EGFR (1:50000, ABclonal Technology, Wuhan, China), anti-pEGFR (Tyr1068, […], Cell Signaling Technology, MA, United States), anti-AKT (1:10000, ABclonal Technology, Wuhan, China), anti-pAKT (1:10000, ABclonal Technology, Wuhan, China), and anti-β-actin (1:10000, ABclonal Technology, Wuhan, China). Protein bands were detected using Tanon High-signal ECL Western Blotting Substrate (Tanon Science and Technology Co., Ltd., Shanghai, China). The band density of the protein of interest was quantified using ImageJ.

EGFR^Del19 [3] = molecular target: T1, EGFR^Del19 (Homo sapiens, UniProt P00533+Q96SW2, DEL746-750); assay: Western blot of EGFR degradation in HCC827 cells; type: cell-based; parameters: host or cells: HCC827; settings: for EGFR degradation (%): HCC827, 24 h, average of two independent experiments, NA = not active; for Dmax: dose-response; for DC50: 24 h treatment; for EGFR protein remaining under cycloheximide: HCC827, cycloheximide 100 μg/mL + 10 nM compound
Procedure: HCC827 and H1975 cell lines were purchased from ATCC (United States) and cultured according to the manuals. Cells were grown in monolayers in appropriate media supplemented with 10% fetal bovine serum and 1% antibiotic/antimycotic solution.
as §1

EGFR^L858R/T790M protein = molecular target: T2, EGFR^L858R/T790M protein (Homo sapiens, UniProt P00533, L858R/T790M); assay: Immunoblots of EGFR in H1975 cells; type: cell-based; settings: H1975 cell line, up to 1 μM, 24 h
T2 construct: nor the EGFR^L858R/T790M protein in the H1975 cell line, up to 1 μM; host or cells: H1975
Procedure: as §1

H1299 cells = assay: Cell viability (CCK-8) in H1299 cells; type: cell-based; settings: up to 1 μM, 96 h
Procedure: (§2) Cells (5 × 10^3 for 48 h or 1 × 10^3 for 96 h) were seeded in 96-well plates, allowed to attach overnight, and then incubated with various concentrations of compounds for 48 h or 96 h. The viability of cells was determined using Cell Counting Kit-8 (CCK-8; Dojindo), and IC50 was calculated using GraphPad Prism (version 6.0). For colony formation assays, cells (1 × 10^3 cells/well) seeded in 24-well plates were treated with different concentrations of compounds and replaced with fresh media with compounds every 4 days. After 7 days, the cells were washed with PBS, fixed with methanol, and stained with 0.1% crystal violet solution.

HCC827 cells [4] = assay: Cell viability (CCK-8) in HCC827 cells; type: cell-based, human; settings: for IC50: Homo sapiens, CCK-8
Procedure: as §2, with “The” for “Cells (5 × 10^3 for 48 h or 1 × 10^3 for 96 h) were seeded in 96-well plates, allowed to attach overnight, and then incubated with various concentrations of compounds for 48 h or 96 h. The”

HeLa cells = assay: Cell viability (CCK-8) in HeLa cells; type: cell-based; settings: up to 1 μM, 96 h
Procedure: as §2

EGFR^WT protein = EGFR^WT protein (Homo sapiens, UniProt P00533); assay: Immunoblots of EGFR in H1299, H460 and HeLa cells; type: cell-based; settings: H1299, H460 and HeLa cell lines, up to 1 μM, 24 h
Procedure: as §1

H1975 cells = assay: Cell viability (CCK-8) in H1975 cells; type: cell-based; settings: up to 1 μM, 96 h
Procedure: as §2

EGFR^L858R = molecular target: T3, EGFR^L858R (Homo sapiens, UniProt P00533, L858R); assay: Western blot of EGFR degradation in Ba/F3 cells stably expressing EGFR^L858R; type: cell-based; settings: 24 h
T3 construct: expressed in transfected cells; host or cells: Ba/F3 (lentiviral pLVX-EGFR^L858R, puromycin selected)
Procedure: HCC827 and H1975 cell lines were purchased from ATCC (United States) and cultured according to the manuals. Cells were grown in monolayers in appropriate media supplemented with 10% fetal bovine serum and 1% antibiotic/antimycotic solution. Ba/F3 cells stably expressing EGFR^L858R were obtained by infection with lentivirus produced by co-transfection of pLVX-EGFR^L858R, psPAX2, and pMD2.G into 293T cells, followed by selection with puromycin.
as §1

[5] = Mouse weights in HCC827 xenograft study; type: in vivo; settings: 30 mg/kg intraperitoneal, repeated and one-time dosing
Procedure: (§3) Female BALB/c nude mice (5–6 weeks old) were purchased from Changzhou Cavens Laboratory Animal Co., Ltd. (China) and housed under pathogen-free conditions. HCC827 cells (5 × 10^6) suspended in 150 μL PBS were inoculated subcutaneously on the left flank of the mouse. When tumor volume reached an average of 70–80 mm^3, mice were randomly assigned to two groups (three mice in each group). Compound 14 (30 mg/kg, dissolved in 40% PEG 400 and 5% Tween-80) or vehicle (40% PEG 400 and 5% Tween-80) was administered to mice via intraperitoneal injection every 2 days for 21 days. The tumor volume was calculated as follows: tumor volume (mm^3) = (length × width^2)/2. All animal experiments were approved by the Ethics Committee for laboratory animals, The Nanjing Han & Zaenker Cancer Institute (File number: OGKQSPF/SQ-112).

HCC827 cells [6] = assay: Apoptosis assay (Annexin V-FITC/PI, flow cytometry); type: cell-based, human; settings: HCC827, 10 nM, 48 h
Text: The percentage of apoptotic cells in total cells was designated as the apoptotic index.

EGFR^Del19 [7] = molecular target: T1, EGFR^Del19; assay: Western blot of dissected HCC827 xenograft tumors; type: in vivo, mouse; parameters: from tissue; host or cells: HCC827 xenograft tumours in female BALB/c nude mice; settings: 30 mg/kg intraperitoneal
Procedure: as §1
Female BALB/c nude mice (5–6 weeks old) were purchased from Changzhou Cavens Laboratory Animal Co., Ltd. (China) and housed under pathogen-free conditions. HCC827 cells (5 × 10^6) suspended in 150 μL PBS were inoculated subcutaneously on the left flank of the mouse. When tumor volume reached an average of 70–80 mm^3, mice were randomly assigned to two groups (three mice in each group). […] The tumor volume was calculated as follows: tumor volume (mm^3) = (length × width^2)/2. […]

HCC827 cells [8] = assay: Colony formation assay in HCC827 cells; type: cell-based, human; settings: HCC827, 7 days
Procedure: as §2

[9] = system: HCC827 human tumor xenograft; assay: HCC827 xenograft tumor growth in BALB/c nude mice; type: in vivo, mouse
Procedure: as §3, with “Compound 14 (30 mg/kg, dissolved in 40% PEG 400 and 5% Tween-80) or vehicle (40% PEG 400 and 5% Tween-80) was administered to mice via intraperitoneal injection every 2 days for 21 days.” left out

[10] = HCC827, 48 h, HCC827, 48 h incubation
[11] = HCC827, 96 h, HCC827, 96 h incubation

Row | Structure (SMILES) | Levels of pEGFR and pAKT (pEGFR and pAKT) | EGFR degradation (%) (EGFR^Del19 [3]; 10 nM) | Earliest time at which EGFR^Del19 degradation observed (EGFR^Del19 [3]; HCC827 cells, 10 nM) | Dmax (EGFR^Del19 [3]; HCC827 cells, 24 h) | DC50 (EGFR^Del19 [3]; HCC827 cells) | Degradation of EGFR^L858R/T790M protein (EGFR^L858R/T790M protein) | Effect on viability (H1299 cells) | IC50 (HCC827 cells [4]; [10]) | IC50 (HCC827 cells [4]; [11]) | Effect on viability (HeLa cells) | Degradation of EGFR^WT protein (EGFR^WT protein) | Effect on viability (H1975 cells) | further results
1 | C=CC(=O)N1CCC[C@H](n2c(Nc3ccccc3)nc3cnc(Nc4ccc(N5CCN(CCCCCCCC(=O)N[C@H](C(=O)N6C[C@H](O)C[C@H]6C(=O)N[C@@H](C)c6ccc(-c7scnc7C)cc6)C(C)(C)C)CC5)cc4)nc32)C1 [CP17] | – | – | – | – | – | – | – | – | – | – | – | – | IC50 (HCC827 cells [1]): 1.6 nM; DC50 (EGFR^Del19 [2]): 0.49 nM
2 | O=C1CCC(N2C(=O)c3ccc(N4CCN(CCN5CCN(CCCOc6cc7ncnc(Nc8ccc(F)c(Cl)c8)c7cc6OCCCN6CCOCC6)CC5)CC4)cc3C2=O)C(=O)N1 (stereo not drawn) [Compound 12] | markedly reduced | 60.0% ± 6.9% and 60.0 ± 6.9% | 2 h | 85.1% | 1.94 nM | neither compound degraded | did not affect the viability | ~30.7 nM | ~25.6 nM | did not affect the viability | neither compound degraded | did not affect the viability | –
3 | COc1cc2c(Nc3ccc(F)c(Cl)c3)ncnc2cc1OCCCN1CCN(CCN2CCN(c3ccc4c(c3)C(=O)N(C3CCC(=O)NC3=O)C4=O)CC2)CC1 (stereo not drawn) [Compound 14] | markedly reduced; also recorded: more marked decreases | 66.3% ± 3.5% and 66.3 ± 3.5% | 2 h | 91.2% | 0.26 nM and 0.261 nM | neither compound degraded | not affecting the viability; also recorded: did not affect the viability | ~8.29 nM | 4.91 nM | not affecting the viability; also recorded: did not affect the viability | no effect; also recorded: neither compound degraded; also recorded: No significant degradation | not affecting the viability; also recorded: did not affect the viability | EGFR protein remaining under cycloheximide (EGFR^Del19 [3]; 4 h): 34.5%; EGFR protein remaining under cycloheximide (EGFR^Del19 [3]; 8 h): 12.5%; Dmax at 0.01 µM (EGFR^Del19 [3]; HCC827 cells, 10 nM, after 24 h of incubation, read-out: Maximum degradation (Dmax) in time course): 85%; Duration of sustained EGFR^Del19 degradation (EGFR^Del19 [3]; HCC827 cells, 10 nM, continuous incubation): 96 h; Duration of EGFR^Del19 reduction after compound removal (EGFR^Del19 [3]; HCC827 cells, 8 h incubation with 10 nM, then washout): over 72 h; Degradation of EGFR^Del19 compared with MS154 (EGFR^Del19 [3]; HCC827 cells, 24 h): remarkable improvements; DC50 (EGFR^L858R; Ba/F3 cells stably expressing EGFR^L858R): 20.6 nM; Degradation of EGFR^L858R compared with MS154 (EGFR^L858R; Ba/F3 cells): remarkable improvements; Signs of wasting (mouse weights) [5]: None of the mice showed signs of wasting; Increase in the number of apoptotic cells (HCC827 cells [6]): at least a two-fold increase; Proliferation after compound removal (HCC827 cells [4]; HCC827, 10 nM for 8 h, washed, fresh media 24-96 h): almost completely stopped proliferating; also recorded: completely ceased proliferation; Proliferation of HCC827 cells versus control vehicle (HCC827 cells [4]; different concentrations): markedly attenuated the proliferation; EGFR^Del19 protein in tumors in vivo (EGFR^Del19 [7]): effectively degraded; Colony formation (HCC827 cells [8]): fewer and smaller colonies; Mean tumor volume ([9]; 30 mg/kg intraperitoneal every 2 days for 21 days): 56.58 ± 10.91 mm^3; Mean tumor volume inhibition ([9]; one-time intraperitoneal injection 30 mg/kg, 18 days after treatment, versus vehicle): 79%
